Results taken from ChEMBL document CHEMBL1154382, “Preliminary SAR analysis of novel antiproliferative N(6),5'-bis-ureidoadenosine derivatives” (2009).
Active and inactive are the calls of the source.

Columns and labels:
Type in all cases: functional
[1] = system: HCT-15; assay: Antiproliferative activity against human HCT15 cells at 10 uM assessed as cell growth inhibition relative to control
[2] = system: DU-145; assay: Antiproliferative activity against human DU145 cells at 10 uM assessed as cell growth inhibition relative to control
[3] = system: TK-10; assay: Antiproliferative activity against human TK10 cells at 10 uM assessed as cell growth inhibition relative to control
[4] = system: SF-268; assay: Antiproliferative activity against human SF268 cells at 10 uM assessed as cell growth inhibition relative to control
[5] = system: SK-OV-3; assay: Antiproliferative activity against human SKOV3 cells at 10 uM assessed as cell growth inhibition relative to control
[6] = system: OVCAR-4; assay: Antiproliferative activity against human OVCAR4 cells at 10 uM assessed as cell growth inhibition relative to control
[7] = system: U-251; assay: Antiproliferative activity against human U251 cells at 10 uM assessed as cell growth inhibition relative to control
[8] = system: BT-549; assay: Antiproliferative activity against human BT549 cells at 10 uM assessed as cell growth inhibition relative to control
[9] = system: OVCAR-8; assay: Antiproliferative activity against human OVCAR8 cells at 10 uM assessed as cell growth inhibition relative to control
[10] = system: IGROV-1; assay: Antiproliferative activity against human IGROV1 cells at 10 uM assessed as cell growth inhibition relative to control
[11] = system: OVCAR-5; assay: Antiproliferative activity against human OVCAR5 cells at 10 uM assessed as cell growth inhibition relative to control
[12] = system: ACHN; assay: Antiproliferative activity against human ACHN cells at 10 uM assessed as cell growth inhibition relative to control
[13] = system: MDA-MB-468; assay: Antiproliferative activity against human MDA-MB-468 cells at 10 uM assessed as cell growth inhibition relative to control
[14] = system: SK-MEL-28; assay: Antiproliferative activity against human SK-MEL-28 cells at 10 uM assessed as cell growth inhibition relative to control
[15] = system: SNB-19; assay: Antiproliferative activity against human SNB19 cells at 10 uM assessed as cell growth inhibition relative to control
[16] = system: NCI-H522; assay: Antiproliferative activity against human NCI-H522 cells at 10 uM assessed as cell growth inhibition relative to control
[17] = system: OVCAR-3; assay: Antiproliferative activity against human OVCAR-3 cells at 10 uM assessed as cell growth inhibition relative to control
[18] = system: SF-295; assay: Antiproliferative activity against human SF295 cells at 10 uM assessed as cell growth inhibition relative to control
[19] = system: HCT-116; assay: Antiproliferative activity against human HCT116 cells at 10 uM assessed as cell growth inhibition relative to control
[20] = system: HT-29; assay: Antiproliferative activity against human HT-29 cells at 10 uM assessed as cell growth inhibition relative to control
[21] = system: A498; assay: Antiproliferative activity against human A498 cells at 10 uM assessed as cell growth inhibition relative to control
[22] = system: K562; assay: Antiproliferative activity against human K562 cells at 10 uM assessed as cell growth inhibition relative to control
[23] = system: CAKI-1; assay: Antiproliferative activity against human Caki1 cells at 10 uM assessed as cell growth inhibition relative to control
[24] = system: HCC 2998; assay: Antiproliferative activity against human HCC2998 cells at 10 uM assessed as cell growth inhibition relative to control
[25] = system: SK-MEL-2; assay: Antiproliferative activity against human SK-MEL-2 cells at 10 uM assessed as cell growth inhibition relative to control
[26] = system: MDA-MB-231; assay: Antiproliferative activity against human MDA-MB-231 cells at 10 uM assessed as cell growth inhibition relative to control
[27] = system: PC-3; assay: Antiproliferative activity against human PC3 cells at 10 uM assessed as cell growth inhibition relative to control
[28] = system: MCF7; assay: Antiproliferative activity against human MCF7 cells at 10 uM assessed as cell growth inhibition relative to control
[29] = system: Malme-3M; assay: Antiproliferative activity against human MALME-3M cells at 10 uM assessed as cell growth inhibition relative to control
[30] = system: HOP-92; assay: Antiproliferative activity against human HOP92 cells at 10 uM assessed as cell growth inhibition relative to control
[31] = system: COLO 205; assay: Antiproliferative activity against human COLO205 cells at 10 uM assessed as cell growth inhibition relative to control
[32] = system: 786-0; assay: Antiproliferative activity against human 786-0 cells at 10 uM assessed as cell growth inhibition relative to control
[33] = system: NCI-H226; assay: Antiproliferative activity against human NCI-H226 cells at 10 uM assessed as cell growth inhibition relative to control
[34] = system: UACC-257; assay: Antiproliferative activity against human UACC257 cells at 10 uM assessed as cell growth inhibition relative to control
[35] = system: SN12C; assay: Antiproliferative activity against human SN12C cells at 10 uM assessed as cell growth inhibition relative to control
[36] = system: M14; assay: Antiproliferative activity against human M14 cells at 10 uM assessed as cell growth inhibition relative to control
[37] = system: NCI-H23; assay: Antiproliferative activity against human NCI-H23 cells at 10 uM assessed as cell growth inhibition relative to control
[38] = system: SW-620; assay: Antiproliferative activity against human SW620 cells at 10 uM assessed as cell growth inhibition relative to control
[39] = system: HOP-62; assay: Antiproliferative activity against human HOP62 cells at 10 uM assessed as cell growth inhibition relative to control
[40] = system: Hs-578T; assay: Antiproliferative activity against human Hs 578T cells at 10 uM assessed as cell growth inhibition relative to control
[41] = system: KM12; assay: Antiproliferative activity against human KM12 cells at 10 uM assessed as cell growth inhibition relative to control
[42] = system: RPMI8266; assay: Antiproliferative activity against human […] cells at 10 uM assessed as cell growth inhibition relative to control
[43] = system: UACC-62; assay: Antiproliferative activity against human UACC62 cells at 10 uM assessed as cell growth inhibition relative to control
[44] = system: EKVX; assay: Antiproliferative activity against human EKVX cells at 10 uM assessed as cell growth inhibition relative to control
[45] = system: SF-539; assay: Antiproliferative activity against human SF539 cells at 10 uM assessed as cell growth inhibition relative to control
[46] = system: HL-60(TB); assay: Antiproliferative activity against human HL-60(TB) cells at 10 uM assessed as cell growth inhibition relative to control
[47] = system: UO-31; assay: Antiproliferative activity against human UO31 cells at 10 uM assessed as cell growth inhibition relative to control
[48] = system: T47D; assay: Antiproliferative activity against human T47D cells at 10 uM assessed as cell growth inhibition relative to control
[49] = system: LOX IMVI; assay: Antiproliferative activity against human LOXIMVI cells at 10 uM assessed as cell growth inhibition relative to control
[50] = system: CCRF-CEM; assay: Antiproliferative activity against human CCRF-CEM cells at 10 uM assessed as cell growth inhibition relative to control
[51] = system: A549; assay: Antiproliferative activity against human A549 cells at 10 uM assessed as cell growth inhibition relative to control
[52] = system: NCI-H460; assay: Antiproliferative activity against human NCI-H460 cells at 10 uM assessed as cell growth inhibition relative to control
[53] = system: SK-MEL-5; assay: Antiproliferative activity against human SK-MEL-5 cells at 10 uM assessed as cell growth inhibition relative to control
[54] = system: RXF 393; assay: Antiproliferative activity against human RXF393 cells at 10 uM assessed as cell growth inhibition relative to control
[55] = system: SNB-75; assay: Antiproliferative activity against human SNB75 cells at 10 uM assessed as cell growth inhibition relative to control
[56] = system: MOLT-4; assay: Antiproliferative activity against human MOLT4 cells at 10 uM assessed as cell growth inhibition relative to control
[57] = system: NCI-H322M; assay: Antiproliferative activity against human NCI-H322M cells at 10 uM assessed as cell growth inhibition relative to control

Measured: growth inhibition (GI)

[N-]=[N+]=NC[C@H]1O[C@@H](n2cnc3c(NC(=O)Nc4ccccc4)ncnc32)[C@@H]2OC(=O)C[C@@H]21
inactive: all assays above
